Values joined by “and” are separate entries in the source; they are usually repeats but may differ in a detail not shown here. Identical values can stand only once. Like-named read-outs stand apart in the source and are kept apart here. Fluorescein = fluorescein label attached to a cysteine side chain
How the values were obtained:
anti-Dengue-1 antibody = test: Peptide binding assay using fluorescence polarization, anti-Dengue-1; conditions: read-out: Kd, fluorescence polarization titration (Eq. 8); 10 nM fluorescein-labeled peptide titrated with antibody
anti-HIV1-p17 antibody = test: Peptide binding assay using fluorescence polarization, anti-HIV1-p17
anti-HA antibody = test: Peptide binding assay using fluorescence polarization, anti-HA
[1] = read-out: Kd, fluorescence polarization titration (Eq. 8), 10 nM fluorescein-labeled short epitope peptide titrated with antibody

**Q.** For EHKYSWKS, which Kd (anti-Dengue-1 antibody) is on record?
**A.** 70 nM

**Q.** How did the Kd (anti-Dengue-1 antibody) turn out when EHKYSWKS-GGG-C(Fluorescein) was run?
**A.** 70 ± 13 nM

**Q.** ELDRWEKIRLRP was tested. Which Kd (anti-HIV1-p17 antibody; read-out: Kd (Kd1) of non-labeled peptide, competition assay (Eqs. 9 and 10), antibody and fluorescein-labeled peptide 100 nM each, titrated with non-labeled peptide) did it give?
**A.** 42 ± 1 nM

**Q.** ELDRWEKIRLRP-GGG-C(Fluorescein) was tested. Which Kd (anti-HIV1-p17 antibody; read-out: Kd, fluorescence polarization titration (Eq. 8), 10 nM fluorescein-labeled peptide titrated with antibody) did it give?
**A.** 24 ± 3 nM

**Q.** WEKIRLR was tested. Which Kd (anti-HIV1-p17 antibody; [1]) did it give?
**A.** ~3000 nM and 3300 nM

**Q.** With “WEKIRLR-GGG-C(Fluorescein) (Ac-WEKIRLRGGGC(Fluorescein)-NH2)” as the substance, how does the Kd (anti-HIV1-p17 antibody; [1]) read?
**A.** 3300 ± 200 nM

**Q.** YPYDVPDYA was tested. Which Kd (anti-HA antibody; read-out: Kd (Kd1) of non-labeled peptide, competition assay (Eqs. 9 and 10), antibody and fluorescein-labeled peptide 10 nM each, titrated with non-labeled peptide) did it give?
**A.** 4.5 nM and ~5 nM

**Q.** With YPYDVPDYA-GGG-C(Fluorescein) as the substance, how does the Kd (anti-HA antibody; read-out: Kd, fluorescence polarization titration (Eq. 8), 2 nM fluorescein-labeled peptide titrated with antibody) read?
**A.** 0.58 ± 0.22 nM
